Literature values, collected in patent US20100280255A1, “PROCESS FOR MAKING SUBSTITUTED 2-AMINO-THIAZOLONES” (AMGEN INC., priority 2007, published 2010).

Assays:
[1] = system: normal subjects; settings: ingestion
[2] = system: healthy human volunteers; settings: healthy human volunteers treated
[3] = system: bone nodule formation

## CC1(C)[C@@H](OC(=O)CCC(=O)O)CC[C@]2(C)[C@H]3C(=O)C=C4[C@@H]5C[C@@](C)(C(=O)O)CC[C@]5(C)CC[C@@]4(C)[C@]3(C)CC[C@@H]12 [carbenoxolone]
[1]
  reduction of the intraocular pressure: 20%
[2]
  hepatic insulin sensitivity: improved
[3]
  negative effect (of glucocorticoids) on bone nodule formation: blocked
